Molecular target: T1, AORX514 (AOR-His) (Thermoanaerobacter pseudethanolicus, UniProt B0K8P3)
T1 construct: gene Teth39_0850; full length, C-terminal 6xHis (plasmid pJM009), made in Thermoanaerobacter kivui MB014; W-containing, FeS cluster
Assay: acetaldehyde-dependent viologen reduction at […] nm; substrate inhibition kinetics
Assay type: biochemical
Conditions: benzyl viologen as electron acceptor, routine assay 50 mM TRIS pH 7.5, 65 °C, anoxic

T1 sequence (B0K8P3 1-599): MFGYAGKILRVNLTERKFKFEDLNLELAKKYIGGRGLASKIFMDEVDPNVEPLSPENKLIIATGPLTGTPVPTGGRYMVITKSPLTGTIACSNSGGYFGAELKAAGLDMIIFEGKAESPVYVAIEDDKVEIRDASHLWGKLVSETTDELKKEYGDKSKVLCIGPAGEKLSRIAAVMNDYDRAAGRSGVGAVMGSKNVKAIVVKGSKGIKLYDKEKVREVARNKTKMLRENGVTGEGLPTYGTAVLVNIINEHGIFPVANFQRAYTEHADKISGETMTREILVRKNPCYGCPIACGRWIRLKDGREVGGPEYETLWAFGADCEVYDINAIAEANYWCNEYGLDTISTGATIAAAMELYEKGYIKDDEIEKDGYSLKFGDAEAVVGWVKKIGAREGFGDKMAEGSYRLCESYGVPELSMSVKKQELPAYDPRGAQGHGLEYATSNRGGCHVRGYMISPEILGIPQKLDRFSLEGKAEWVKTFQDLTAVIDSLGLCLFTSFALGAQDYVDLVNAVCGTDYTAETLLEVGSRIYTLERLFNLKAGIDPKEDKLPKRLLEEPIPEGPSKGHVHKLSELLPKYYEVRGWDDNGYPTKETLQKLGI

SMILES: CC=O [Acetaldehyde]
- ki: 8.7 ± 1.3 mM

— PMC10816221, “A Versatile Aldehyde: Ferredoxin Oxidoreductase from the Organic Acid Reducing Thermoanaerobacter sp. Strain X514” (International Journal of Molecular Sciences, 2024)
